One data set has as its system Candida albicans. As to the kind of experiment: Antifungal activity against Candida albicans NCIM 0707 after 18 hr by disk diffusion method. Note: test concentration or dose not given here. It is filed as functional. In general terms: A growth-free zone around the sample is the usual read-out of agar diffusion tests.
The next data set relates to Proteus vulgaris. Kind of data set: Antibacterial activity against Proteus vulgaris NCIM 2239 after 18 hr by disk diffusion method. Note: test concentration or dose not given here. Type of data set: functional.
The next data set has as its system Salmonella paratyphi. As to the kind of experiment: Antibacterial activity against Salmonella enterica subsp. enterica serovar Paratyphi A NCIM […] after 18 hr by disk diffusion method. Type of data set: functional.
The test system of the next data set is Klebsiella aerogenes. As to the kind of experiment: Antibacterial activity against Enterobacter aerogenesNCIM 2075 after 18 hr by disk diffusion method. Note: test concentration or dose not given here. It is filed as functional, NCIM 2075.
A further data set has as its system Escherichia coli. As to the kind of experiment: Antibacterial activity against Escherichia coli NCIM 2065 after 18 hr by disk diffusion method. Note: test concentration or dose not given here. Type of data set: functional.
The test system of another data set is Staphylococcus. Kind of data set: Antibacterial activity against Staphylococcus albus NCIM 2178 after 18 hr by disk diffusion method. Note: test concentration or dose not given here. It is filed as functional.
The next data set relates to Bacillus cereus. Kind of data set: Antibacterial activity against Bacillus cereus NCIM 2018 after 18 hr by disk diffusion method. Note: test concentration or dose not given here. Type of data set: functional.
The next data set has as its system Micrococcus luteus. As to the kind of experiment: Antibacterial activity against Micrococcus luteus NCIM 2155 after 18 hr by disk diffusion method. Note: test concentration or dose not given here. Type of data set: functional.
For another data set, the system named is Lederbergia lenta. Kind of data set: Antibacterial activity against Bacillus lentus NCIM 2018 after 18 hr by disk diffusion method. Note: test concentration or dose not given here. It is filed as functional.
Data set [1] can be described thus: Solubility of the compound in dilute acids. Type of data set: physicochemical.
The nature of data set [2]: Solubility of the compound in acetic acid. It is filed as physicochemical.
A short description of data set [3]: Solubility of the compound in ethyl acetate. Type of data set: physicochemical.
Data set [4] is described as follows: Solubility of the compound in DMSO. Type of data set: physicochemical.
Data set [5] in a line: Solubility of the compound in benzene. It is filed as physicochemical.
The nature of data set [6]: Solubility of the compound in ethanol. Type of data set: physicochemical.
Data set [7] can be described thus: Solubility of the compound in DMF. Type of data set: physicochemical.
The nature of data set [8]: Solubility of the compound in water. Type of data set: physicochemical.
A short description of data set [9]: Solubility of the compound in chloroform. It is filed as physicochemical.

Turning to `COc1cc(/C=N/NC(=O)Nn2c(-c3ccccc3)nc3ccccc3c2=O)ccc1O`, the “diameter of the inhibition zone (DIZ)” value turned out to be 21 mm with Candida albicans; 16 mm with Proteus vulgaris; 15 mm in the data set with Salmonella paratyphi; 16 mm in the data set on Klebsiella aerogenes; 19 mm in the data set with Escherichia coli; 13 mm in the data set with Staphylococcus. The “diameter of the inhibition zone (DIZ)” value in the data set with Bacillus cereus is reported as 14 mm; with Micrococcus luteus, 15 mm; in the data set with Lederbergia lenta, 18 mm. In addition, the solubility entry in data set [1], in [2], in [3], in data set [4], in [5] and in data set [6] was “soluble” in each case. In addition, the solubility result is on record as “soluble” in data set [7], “Insoluble” in data set [8] and “soluble” in data set [9].

For `O=C(N/N=C1/C(=O)Nc2ccccc21)Nn1c(-c2ccccc2)nc2ccccc2c1=O`, the “diameter of the inhibition zone (DIZ)” value in the data set on Candida albicans is 22 mm; in the data set with Proteus vulgaris, 17 mm; in the data set on Salmonella paratyphi, 16 mm; in the data set on Klebsiella aerogenes, 17 mm; in the data set on Escherichia coli, 21 mm; in the data set on Staphylococcus it was 13 mm. For the same compound, the “diameter of the inhibition zone (DIZ)” value in the data set on Bacillus cereus was 12 mm; in the data set on Micrococcus luteus it was 16 mm; in the data set with Lederbergia lenta, 17 mm. Further, the solubility entry in [1], in data set [2], in data set [3], in data set [4], in data set [5] and in [6] was “soluble” each time. Further, the solubility entry in [7] is given as “soluble”; in data set [8], “Insoluble”; in data set [9] it was “soluble”.

For `CC12CCC(C/C1=N/NC(=O)Nn1c(-c3ccccc3)nc3ccccc3c1=O)C2(C)C` (centres undefined), the “diameter of the inhibition zone (DIZ)” value with Candida albicans worked out at 20 mm; in the data set with Proteus vulgaris it was 17 mm; in the data set with Salmonella paratyphi it was 15 mm; in the data set with Klebsiella aerogenes it was 16 mm; in the data set with Escherichia coli, 18 mm; in the data set with Staphylococcus it was 12 mm. The “diameter of the inhibition zone (DIZ)” value in the data set with Bacillus cereus was 14 mm; in the data set with Micrococcus luteus it was 14 mm; with Lederbergia lenta, 17 mm. Also, the solubility entry is reported as “Insoluble” in data set [1]; “Insoluble” in [2]; “soluble” in data set [3]; “soluble” in [4]; “Insoluble” in data set [5]; “soluble” in data set [6]. Besides, the solubility entry in data set [7] is reported as “soluble”; in data set [8] it was “Insoluble”; in [9], “soluble”.

Regarding `O=C(NN=C(c1ccccc1)c1ccccc1)Nn1c(-c2ccccc2)nc2ccccc2c1=O`, the “diameter of the inhibition zone (DIZ)” value was determined as 25 mm with Candida albicans; 16 mm in the data set with Proteus vulgaris; 16 mm in the data set on Salmonella paratyphi; 15 mm with Klebsiella aerogenes; 21 mm in the data set with Escherichia coli; 10 mm in the data set with Staphylococcus. The “diameter of the inhibition zone (DIZ)” value in the data set with Bacillus cereus was 15 mm; with Micrococcus luteus it was 12 mm; in the data set with Lederbergia lenta it was 17 mm. Also, the solubility result in [1] is listed as “Insoluble”; in [2], “Insoluble”; in data set [3], “soluble”; in data set [4] it was “soluble”; in data set [5], “soluble”; in data set [6] it was “soluble”. In addition, the results for the solubility result in [7], in [8] and in data set [9] were “soluble”, “Insoluble” and “soluble”, respectively.

With `CN(C)c1ccc(/C=N/NC(=O)Nn2c(-c3ccccc3)nc3ccccc3c2=O)cc1`, the “diameter of the inhibition zone (DIZ)” value with Candida albicans is 21 mm; with Proteus vulgaris, 18 mm; in the data set with Salmonella paratyphi, 15 mm; in the data set with Klebsiella aerogenes, 17 mm; in the data set on Escherichia coli it was 19 mm; in the data set on Staphylococcus, 16 mm. Further, the “diameter of the inhibition zone (DIZ)” value in the data set with Bacillus cereus was found to be 17 mm; with Micrococcus luteus, 16 mm; in the data set on Lederbergia lenta it was 18 mm. For the same compound, the solubility entry in data set [1] is on record as “Insoluble”; in data set [2] it was “Insoluble”; in [3] it was “soluble”; in [4], “soluble”; in data set [5], “soluble”; in [6] it was “soluble”. Further, the solubility result in [7] was “soluble”; in [8], “Insoluble”; in [9], “soluble”.

As for `O=C(O)c1cn(C2CC2)c2cc(N3CCNCC3)c(F)cc2c1=O` [CIPROFLOXACIN], the “diameter of the inhibition zone (DIZ)” value turned out to be 8 mm with Proteus vulgaris; 8 mm in the data set with Salmonella paratyphi; 10 mm in the data set with Klebsiella aerogenes; 16 mm in the data set with Escherichia coli; 8 mm with Staphylococcus; 9 mm in the data set on Bacillus cereus. Moreover, the results for the “diameter of the inhibition zone (DIZ)” value with Micrococcus luteus and with Lederbergia lenta were 8 mm and 9 mm, respectively.

For the compound `Clc1ccccc1C(c1ccccc1)(c1ccccc1)n1ccnc1` [CLOTRIMAZOLE], the “diameter of the inhibition zone (DIZ)” value with Candida albicans is listed as 14 mm.

(Values after ChEMBL document CHEMBL3046426, “Analytical and biological characterization of quinazoline semicarbazone derivatives” (Med Chem Res, 2010).)
